From PubChem BioAssay (NCI)
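In this assay, cells in 96-well plates receive the compound at five concentrations for 48 hours. Endpoints are linearly interpolated between the surrounding concentrations. GI50 marks 50% less growth. TGI is the concentration that stops growth completely.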

Legend:
Experiment in all cases: inhibition of tumour cell growth, NCI panel, 48 h
ACHN renal = tested on: ACHN renal
CAKI-1 renal = tested on: CAKI-1 renal
HOP-92 NSCLC = tested on: HOP-92 NSCLC
M14 melanoma = tested on: M14 melanoma
MCF7 breast = tested on: MCF7 breast
SF-295 CNS = tested on: SF-295 CNS
SK-OV-3 ovarian = tested on: SK-OV-3 ovarian
UO-31 renal = tested on: UO-31 renal
DLD-1 colon = tested on: DLD-1 colon
M19-MEL melanoma = tested on: M19-MEL melanoma

Row | Structure (SMILES) | GI50 (ACHN renal) | TGI (ACHN renal) | GI50 (CAKI-1 renal) | TGI (CAKI-1 renal) | GI50 (HOP-92 NSCLC) | TGI (HOP-92 NSCLC) | GI50 (M14 melanoma) | TGI (M14 melanoma) | GI50 (MCF7 breast) | TGI (MCF7 breast) | GI50 (SF-295 CNS) | TGI (SF-295 CNS) | GI50 (SK-OV-3 ovarian) | TGI (SK-OV-3 ovarian) | GI50 (UO-31 renal) | TGI (UO-31 renal) | TGI (DLD-1 colon) | TGI (M19-MEL melanoma)
1 | CCOC(=O)c1sc(-c2ccc(OS(=O)(=O)C[C@]34CCC(CC3=O)C4(C)C)c(C=O)c2)nc1C | 1.3 µM | 3.71 µM | 0.667 µM | 2.67 µM | 0.951 µM | 3.7 µM | 1.09 µM | 2.45 µM | 0.858 µM | 2.47 µM | 1.16 µM | 2.85 µM | 1.3 µM | 4.09 µM | 1.05 µM | 4.65 µM | – | –
2 | CCCN(CCC)c1ccc(C=O)c(Cl)c1 | 31.7 µM | > 100 µM | 15.1 µM | > 66.9 µM | 9.64 µM | 36 µM | 26 µM | > 100 µM | 1.8 µM | 29.4 µM | 3.87 µM | 29.2 µM | 24.4 µM | > 100 µM | 19.7 µM | > 83.8 µM | – | –
3 | COc1ccc(O)c(C(=O)CCC(=O)O)c1 | – | > 100 µM | – | – | – | > 100 µM | – | > 10 µM | – | – | – | > 100 µM | – | > 100 µM | – | > 100 µM | > 100 µM | > 100 µM
4 | C=CC(C)(C)n1cc(C2=C(O)C(=O)C(c3cn(C(C)(C)C=C)c4ccccc34)=C(O)C2=O)c2ccccc21 | – | 12.9 µM | – | 6.56 µM | – | 18.9 µM | – | 8.5 µM | – | 12.4 µM | – | 12.8 µM | – | 10.4 µM | – | 4.27 µM | – | –
5 | COc1ccc(Nc2nc(Nc3cc(C)[nH]n3)c3cc(OC)c(OC)cc3n2)cc1 | 1.45 µM | 2.78 µM | 1.59 µM | 2.95 µM | 1.29 µM | 2.93 µM | 1.31 µM | 2.89 µM | 0.457 µM | 2.05 µM | 1.33 µM | 2.68 µM | 1.83 µM | 3.33 µM | 1.45 µM | 2.93 µM | – | –
6 | O=C(c1ccc2ccccc2c1)c1nc2cc(F)ccc2[n+]([O-])c1C(F)(F)F | 22.5 µM | 60 µM | 4.29 µM | 17.6 µM | 19.5 µM | 36.5 µM | 17.8 µM | 34 µM | 35.6 µM | > 100 µM | 18.3 µM | 37.9 µM | 19.4 µM | 34.1 µM | 9.42 µM | 48.8 µM | – | –
7 | COc1ccc(C2=NC(=O)NC2c2ccc(OC)cc2)cc1 (stereo unspecified) | 21.9 µM | > 100 µM | 2.51 µM | 15.4 µM | 1.95 µM | 30.5 µM | 4.03 µM | 25.4 µM | 4.34 µM | > 100 µM | 5.35 µM | 47.5 µM | 19.9 µM | > 100 µM | 20.7 µM | > 100 µM | – | –
8 | COc1cc(C2=NN(C(C)=O)C(c3cc(OC)c(OC)c(OC)c3)C2)ccc1O (stereo unspecified) | 0.614 µM | > 100 µM | 0.317 µM | > 21.5 µM | 67 µM | > 100 µM | 0.342 µM | > 100 µM | 0.276 µM | > 100 µM | 0.216 µM | > 100 µM | 0.307 µM | > 100 µM | 0.809 µM | > 100 µM | – | –
9 | CC(NC(=O)Cc1ccc(C(F)(F)P(=O)(OCc2ccc([N+](=O)[O-])o2)N(C)CCCCCl)cc1)c1ccc(OCC2CCCCC2)c(C(N)=O)c1 (stereo unspecified) | 8.77 µM | 39.3 µM | 15.8 µM | 48.4 µM | 16.5 µM | 37.2 µM | 0.398 µM | 1.99 µM | 6.53 µM | 41.4 µM | 4.52 µM | 12.3 µM | 19.3 µM | 43.5 µM | 7.74 µM | 21.9 µM | – | –
10 | CN(Cc1ccc(F)cc1)c1ccc(CO)c(Cl)c1 | 28.9 µM | > 100 µM | 2.49 µM | 45.8 µM | 3.87 µM | 24 µM | 23.3 µM | > 76.9 µM | 1.23 µM | 21.5 µM | 3.38 µM | > 62.3 µM | 12.2 µM | 70.9 µM | 7.53 µM | > 65.1 µM | – | –
11 | C/C(=C(/c1ccccc1)c1ccc(OCC(O)CNCCN2CCOCC2)cc1)c1ccccc1 (stereo unspecified) | 3.31 µM | 11.7 µM | 1.67 µM | 3.49 µM | 1.5 µM | 4.81 µM | 1.88 µM | 3.85 µM | 3.61 µM | 10.2 µM | 1.92 µM | 3.63 µM | 11.1 µM | 24.8 µM | 1.37 µM | 2.77 µM | – | –
12 | c1ccc(-c2nc3n(c2-c2ccc4c(c2)OCO4)CCC3)nc1 | 0.993 µM | > 25 µM | 0.62 µM | > 25 µM | 3.48 µM | 20.8 µM | 6.77 µM | > 20.3 µM | 7.89 µM | > 21.3 µM | 4.8 µM | 24.5 µM | 4.54 µM | 14.7 µM | 0.611 µM | 8.58 µM | – | –
